Experimental data: patent publication US20260184663A1, “INDENE COMPOUNDS, PHARMACEUTICAL COMPOSITIONS THEREOF, AND THEIR THERAPEUTIC APPLICATIONS” (NucMito Pharmaceuticals co. Ltd., priority 2022, published 2026)

Legend:
Format in all cases: cell-based
[1] = system: MDA-MB-231 (breast cancer); test: Antiproliferative activity (CCK-8 cell viability), MDA-MB-231; details: Homo sapiens, 72 h, read-out: Antiproliferative activity in cancerous cells, MDA-MB-231 (inhibition of cell growth); for inhibition at 3.3 µM: Compound concentration: 3.3 μM; for inhibition at 10 µM: Compound concentration: 10 μM
Procedure, shortened: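 Growth inhibition of human MDA-MB-231 breast cancer cells was assessed with a Cell Counting Kit-8. Cells cultured in DMEM plus 10% FBS were seeded at 2,000-5,000 cells/well, treated after attachment, and kept 72 h at 37° C. CCK-8 solution (10 μL) was added for 4 h, and absorbance at 450 nm was compared with DMSO-treated controls.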

SW480 (colon cancer) = test: Antiproliferative activity (CCK-8 cell viability), SW480; details: Homo sapiens, 72 h, read-out: Antiproliferative activity in cancerous cells, SW480 (inhibition of cell growth); for inhibition at 3.3 µM: Compound concentration: 3.3 μM; for inhibition at 10 µM: Compound concentration: 10 μM
Procedure, shortened: (§1)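 Growth inhibition graded in bands from percent viability against DMSO vehicle, read as CCK-8 absorbance at 450 nm. Compound tested at 3.3, 10 or 30 μM for 72 h, 37 °C; media contained 10% FBS: DMEM for HepG2/SW480, MEM for HeLa, F-12K for A549.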

HepG2 (liver cancer) = test: Antiproliferative activity (CCK-8 cell viability), HepG2; details: Homo sapiens, 72 h, read-out: Antiproliferative activity in cancerous cells, HepG2 (inhibition of cell growth); for inhibition at 3.3 µM: Compound concentration: 3.3 μM; for inhibition at 10 µM: Compound concentration: 10 μM
Procedure, shortened: as §1

[2] = system: A431 (epidermoid carcinoma); test: Antiproliferative activity (CCK-8 cell viability), A431; details: Homo sapiens, 72 h, read-out: Antiproliferative activity in cancerous cells, A431 (inhibition of cell growth); for inhibition at 3.3 µM: A-431, Compound concentration: 3.3 μM; for inhibition at 10 µM: A-431, Compound concentration: 10 μM
Procedure, shortened: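 This growth inhibition assay used A431 cells maintained in Dulbecco's modified Eagle's medium plus 10% fetal bovine serum. Cells were seeded in 96-well plates, treated with compound for 72 h at 37° C., and then given 10 μL CCK-8 solution. After a further 4 h, absorbance was read at 450 nm.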

HeLa (cervical cancer) = test: Antiproliferative activity (CCK-8 cell viability), HeLa; details: Homo sapiens, 72 h, read-out: Antiproliferative activity in cancerous cells, HELA (inhibition of cell growth); for inhibition at 3.3 µM: Compound concentration: 3.3 μM; for inhibition at 10 µM: Compound concentration: 10 μM
Procedure, shortened: as §1

[3] = system: B16F10 (malignant melanoma); test: Antiproliferative activity (CCK-8 cell viability), B16F10; details: Mus musculus, 72 h, read-out: Antiproliferative activity in cancerous cells, B16F10 (inhibition of cell growth); for inhibition at 3.3 µM: B16-F10, Compound concentration: 3.3 μM; for inhibition at 10 µM: B16-F10, Compound concentration: 10 μM
Procedure, shortened: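 Cell growth inhibition was measured in B16F10 malignant melanoma cells with a Cell Counting Kit-8 viability assay. Cells were maintained in DMEM plus 10% fetal bovine serum, seeded at 2,000-5,000 cells/well in 96-well plates, and treated for 72 h at 37° C. Viability was expressed relative to DMSO-treated vehicle control wells.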

[4] = system: A549 (lung adenocarcinoma); test: Antiproliferative activity (CCK-8 cell viability), A549; details: Homo sapiens, 72 h; for inhibition at 3.3 µM: Compound concentration: 3.3 μM; for inhibition at 3.3 µM / inhibition at 10 µM: read-out: Antiproliferative activity in cancerous cells, A549 (inhibition of cell growth); for inhibition at 10 µM: Compound concentration: 10 μM
Procedure, shortened: as §1

[5] = system: alpha-smooth muscle actin (α-SMA); test: Inhibition of TGF-β induced expression of alpha-smooth muscle actin (α-SMA) in CFSC cells (western blot); details: compound at 10 μM, TGF-β (10 ng/mL), 24 hours, band intensity vs TGF-β only
Procedure, shortened: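 Values are percent reduction of α-SMA band intensity relative to cells given TGF-β alone, quantified by Western blot densitometry with β-actin probed. Compound was applied at 10 μM alongside 10 ng/mL TGF-β to serum-free CFSC cultures for 24 h at 37 °C.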

Compound	inhibition at 3.3 µM [1] [%]	inhibition at 10 µM [1] [%]	inhibition at 3.3 µM (SW480 (colon cancer)) [%]	inhibition at 10 µM (SW480 (colon cancer)) [%]	inhibition at 3.3 µM (HepG2 (liver cancer)) [%]	inhibition at 10 µM (HepG2 (liver cancer)) [%]	inhibition at 3.3 µM [2] [%]	inhibition at 10 µM [2] [%]	inhibition at 3.3 µM (HeLa (cervical cancer)) [%]	inhibition at 10 µM (HeLa (cervical cancer)) [%]	inhibition at 3.3 µM [3] [%]	inhibition at 10 µM [3] [%]	inhibition at 3.3 µM [4] [%]	inhibition at 10 µM [4] [%]	inhibition at 10 µM [5] [%]	inhibition at 30 µM ([4]; Compound concentration: 30 μM, read-out: Antiproliferative activity in cancerous cells, A549) [%]
CCCC1=C(CC(=O)O)c2cc(F)ccc2/C1=C\c1cccc(Oc2ccccc2)c1 [C22, (Z)-2-(5-Fluoro-1-(3-phenoxybenzylidene)-2-propyl-1H-inden-3-yl)acetic acid]	≥ 50	≥ 50	< 30	30 to 50	< 30	≥ 50	< 30	≥ 50	< 30	≥ 50	30 to 50	≥ 50	≥ 50	≥ 50	> 80	–
O=C(O)CC1=C(C2CCc3ccc(F)cc32)/C(=C/c2ccc(Oc3ccc(F)cc3)cc2)c2ccc(F)cc21 (stereo not shown) [C12, (Z)-2-(5′,6-Difluoro-1′-(4-(4-fluorophenoxy)benzylidene)-2,3-dihydro-1H,1′H-[1,2′-biinden]-3′-yl)acetic acid]	≥ 50	≥ 50	≥ 50	≥ 50	≥ 50	≥ 50	≥ 50	≥ 50	≥ 50	≥ 50	≥ 50	≥ 50	≥ 50	≥ 50	> 80	–
O=C(O)CC1=C(Cc2ccccc2)/C(=C/c2ccc(COc3ccccc3)cc2)c2ccc(F)cc21 [A1, (Z)-2-(2-Benzyl-5-fluoro-1-(4-(phenoxymethyl)benzylidene)-1H-inden-3-yl)-acetic acid]	≥ 50	≥ 50	≥ 50	≥ 50	30 to 50	≥ 50	30 to 50	≥ 50	≥ 50	≥ 50	30 to 50	≥ 50	< 30	30 to 50	> 80	–
CC1=C(CC(=O)O)c2cccc(F)c2/C1=C\c1cccc(COc2ccccc2)c1 [B9, (Z)-2-(7-Fluoro-2-methyl-1-(3-(phenoxymethyl)benzylidene)-1H-inden-3-yl)-acetic acid]	30 to 50	30 to 50	< 30	< 30	< 30	< 30	< 30	< 30	< 30	30 to 50	< 30	≥ 50	30 to 50	30 to 50	50 to 80	30 to 50
CC1=C(CC(=O)O)c2c(F)cccc2/C1=C\c1cccc(Oc2ccccc2)c1 [C21, (Z)-2-(4-Fluoro-2-methyl-1-(3-phenoxybenzylidene)-1H-inden-3-yl)acetic acid]	≥ 50	≥ 50	< 30	< 30	< 30	30 to 50	< 30	≥ 50	30 to 50	≥ 50	< 30	< 30	30 to 50	30 to 50	< 30	–
